The target in one assay is T1, MCL-1 (Homo sapiens, UniProt Q07820).
T1 construct: purchased BPS Bioscience
The assay can be described thus: Cell free Mcl-1:Bim affinity assay (fluorescence polarization competition). In kind it is binding. To be noted: 15 nM MCL-1, 5 nM FITC-Bim tracer, 1 hour at room temperature; Ki calc. from IC50 by Nikolovska-Coleska's equation; read-out: BIM_ Ki. Here is the method:
Cell Free Mcl-1:Bim Affinity Assay (Mcl-1 Bim)
The binding affinity of each compound was measured via a fluorescence polarization competition assay, in which the compound competes for the same binding site with the ligand, and thus leads to a dose-dependent anisotropy reduction. The tracer ligand utilized was a fluorescein isothiocyanate labelled peptide (FITC-[…]) derived from Bim (GenScript).
The assay was carried out in black half-area 96-well NBS plate (Corning), containing 15 nM of MCL-1 (BPS Bioscience), 5 nM of FITC-Bim and 3-fold serial diluted test compounds in a total volume of 50 μL of assay buffer (20 mM HEPES, 50 mM NaCl, 0.002% Tween 20, 1 mM TCEP, and 1% DMSO). The reaction plate was incubated for 1 hour at room temperature. The change of anisotropy is measured with an Envision multimode plate reader (PerkinElmer) at emission wavelength 535 nm. Fluorescence polarization was calc. in mP unit and the percentage inhibition was calc. by % inhibition=100×(mPDMSO−mP)/(mPDMSO−mPPC), in which mPDMSO is the DMSO control, and mPPC is the positive control. IC50 values were determined from a 10-point dose response curve by fitting the percent inhibition against compound concentration using the GraphPad Prism software. The inhibition constant Ki was subsequently calc. according to the Nikolovska-Coleska's equation (Anal. Biochem., 2004, 332, 261),
where [I]50 is the concentration of the free inhibitor at 50% inhibition, [L]50 is the concentration of the free labeled ligand at 50% inhibition, [P]0 is the concentration of the free protein at 0% inhibition, and Kd is the dissociation constant of the protein-ligand complex.

Another assay concerns H929 cells. The experiment in a line: Cell viability assay (H929 10 FBS). To be noted: CellTiter-Glo or ATPlite, read-out: H929_10FBS IC50. Type of assay: cell-based. The method, then: Cell Viability Assay (H929 10 FBS)
Dispense 10 μL aliquot of prepared H929 cells (1:1 ratio of cells:Trypan Blue (#1450013, Bio-Rad)) onto cell counting slide (#145-0011, Bio-Rad) and obtain cell density and cell viability using cell counter (TC20, Bio-Rad). Remove appropriate volume of resuspended cells from culture flask to accommodate 4000 cells/well @ 10 μL/well. Transfer H929 cells to 50 mL conical (#430290, Corning). Spin down at 1000 rpm for 5 min using tabletop centrifuge (SPINCHRON 15, Beckman). Discard supernatant and resuspend cell pellet in modified RPMI 1640 (#10-040-CV, Corning) cell culture media containing 10% FBS (F2422-500 ML, Sigma), sodium pyruvate (100 mM) (#25-000-CL, Corning), HEPES buffer (1 M) (#25-060-CL, Corning) and glucose (200 g/L) (A24940-01, Gibco) to a cell density of 400,000 cells/mL. Dispense 10 μL of resuspended H929 cells per well in 384-well small volume TC treated plate (#784080, Greiner Bio-one) using standard cassette (#50950372, Thermo Scientific) on Multi-drop Combi (#5840310, Thermo Scientific) in laminar flow cabinet. Dispense compounds onto plates using digital liquid dispenser (D300E, Tecan). Incubate plates in humidified tissue culture incubator @ 37° C. for 24 hours. Add 10 μL of prepared CellTiTer-Glo® detection buffer (G7570, Promega) or ATPlite 1Step detection reagent (#6016731, Perkin Elmer) to each well of 384-well plate using small tube cassette (#24073295, Thermo Scientific) on Combi multi drop, incubate @ RT for 30-60 min. Read plates with microplate reader (PheraStar, BMG Labtech) using 384 well luminescence mode.
Background: Cellular ATP, detected with luciferase, serves as a proxy for viable cell number.

The values that follow come from patent US20230212191A1, “SPIRO-SULFONIMIDAMIDE DERIVATIVES AS INHIBITORS OF MYELOID CELL LEUKEMIA-1 (MCL-1) PROTEIN” (PRELUDE THERAPEUTICS, INCORPORATED, priority 2020, published 2023).

Read-outs that look alike come from different tables or passages of the source.

T1 sequence (Q07820 whole entry): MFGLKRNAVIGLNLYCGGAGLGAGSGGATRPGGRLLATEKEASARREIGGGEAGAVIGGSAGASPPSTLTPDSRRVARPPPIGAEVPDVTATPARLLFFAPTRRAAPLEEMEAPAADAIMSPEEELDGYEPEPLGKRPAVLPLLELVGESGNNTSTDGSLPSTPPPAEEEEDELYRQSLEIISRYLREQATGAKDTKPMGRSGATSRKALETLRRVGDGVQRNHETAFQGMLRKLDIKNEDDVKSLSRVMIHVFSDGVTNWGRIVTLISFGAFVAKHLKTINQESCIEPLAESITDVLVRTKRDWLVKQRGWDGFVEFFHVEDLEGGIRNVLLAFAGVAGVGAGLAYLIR

The term Ki denotes the equilibrium dissociation constant of an inhibitor or competing ligand from its target. `Cc1nn(C)cc1C(=O)NS1(=O)=NC(=O)C(C)(C)OC/C=C/[C@H](OC(=O)N(C)C)[C@@H]2CC[C@H]2CN2C[C@@]3(CCCc4cc(Cl)ccc43)COc3ccc1cc32` (stereo partly drawn) [Example 51, [(3R,6R,7S,8E,22S)-7′-Chloro-15-[(1,3-dimethylpyrazole-4-carbonyl)amino]-12,12-dimethyl-13,15-dioxospiro[11,20-dioxa-15-thia-1,14-diazatetracyclo[14.7.2.03,6.019,24]pentacosa-8,14,16,18,24-pentaene-22,4′-2,3-dihydro-1H-naphthalene]-7-yl] N,N-dimethylcarbamate]: the Ki at MCL-1 is less than 1 nM. One may read the IC50 as the concentration that gives 50% inhibition. Regarding `CO[C@H]1/C=C/COC(C)(C)C(=O)N=S(=O)(NC(=O)C2CCOCC2)c2ccc3c(c2)N(C[C@@H]2CC[C@H]21)C[C@@]1(CCCc2cc(Cl)ccc21)CO3` (stereo partly drawn) [Example 11, N-[(3R,6R,7S,8E,22S)-7′-Chloro-7-methoxy-12,12-dimethyl-13,15-dioxospiro[11,20-dioxa-15-thia-1,14-diazatetracyclo[14.7.2.03,6.019,24]pentacosa-8,14,16,18,24-pentaene-22,4′-2,3-dihydro-1H-naphthalene]-15-yl]oxane-4-carboxamide], the IC50 with H929 cells (Homo sapiens, NCI-H929, 24 h) was less than 100 nM. Besides, at MCL-1, the Ki is less than 1 nM. With `CO[C@H]1/C=C/COC(C)(C)C(=O)N=S(=O)(NC(=O)c2cn(C)nc2C)c2ccc3c(c2)N(C[C@@H]2CC[C@H]21)C[C@@]1(CCCc2cc(Cl)ccc21)CO3` (stereo partly drawn) [Example 17, N-[(3R,6R,7S,8E,22S)-7′-chloro-7-methoxy-12,12-dimethyl-13,15-dioxospiro[11,20-dioxa-15-thia-1,14-diazatetracyclo[14.7.2.03,6.019,24]pentacosa-8,14,16,18,24-pentaene-22,4′-2,3-dihydro-1H-naphthalene]-15-yl]-1,3-dimethylpyrazole-4-carboxamide], the IC50 in the assay with H929 cells (Homo sapiens, NCI-H929, 24 h) was less than 100 nM. For the same molecule, the Ki on MCL-1 was less than 1 nM. Consider `COC1CN(C(=O)NS2(=O)=NC(=O)C(C)(C)OCC=CC(OC)C3CCC3CN3CC4(CCCc5cc(Cl)ccc54)COc4ccc2cc43)C1` (stereo not shown) [32 or 31], for which the IC50 with H929 cells (24 hours) lay within 100 to 500 nM. For the same molecule, the Ki on MCL-1 is less than 1 nM. With `Cn1cc(C(=O)NS2(=O)=NC(=O)C(C)(C)OC/C=C/[C@H](O)[C@@H]3CC[C@H]3CN3C[C@@]4(CCCc5cc(Cl)ccc54)COc4ccc2cc43)cn1` (stereo partly drawn) [Example 52, N-[(3R,6R,7S,8E,22S)-7′-Chloro-7-hydroxy-12,12-dimethyl-13,15-dioxospiro[11,20-dioxa-15-thia-1,14-diazatetracyclo[14.7.2.03,6.019,24]pentacosa-8,14,16,18,24-pentaene-22,4′-2,3-dihydro-1H-naphthalene]-15-yl]-1-methylpyrazole-4-carboxamide], the Ki at MCL-1 is more than 1 nM.

In the case of `CO[C@H]1/C=C/COC(C)(C)C(=O)N=S(=O)(NC(=O)c2cc(C)n(C)n2)c2ccc3c(c2)N(C[C@@H]2CC[C@H]21)C[C@@]1(CCCc2cc(Cl)ccc21)CO3` (stereo partly drawn) [Example 19, N-[(3R,6R,7S,8E,22S)-7′-Chloro-7-methoxy-12,12-dimethyl-13,15-dioxospiro[11,20-dioxa-15-thia-1,14-diazatetracyclo[14.7.2.03,6.019,24]pentacosa-8,14,16,18,24-pentaene-22,4′-2,3-dihydro-1H-naphthalene]-15-yl]-1,5-dimethylpyrazole-3-carboxamide], on MCL-1, the Ki was less than 1 nM. On the same count and under the same terms, the result for `CO[C@H]1/C=C/COC(C)(C)C(=O)N=S(=O)(NC(=O)NC2CCOCC2)c2ccc3c(c2)N(C[C@@H]2CC[C@H]21)C[C@@]1(CCCc2cc(Cl)ccc21)CO3` (stereo partly drawn) [Example 38, 1-[(3R,6R,7S,8E,22S)-7′-Chloro-7-methoxy-12,12-dimethyl-13,15-dioxospiro[11,20-dioxa-15-thia-1,14-diazatetracyclo[14.7.2.03,6.019,24]pentacosa-8,14,16,18,24-pentaene-22,4′-2,3-dihydro-1H-naphthalene]-15-yl]-3-(oxan-4-yl)urea] reads more than 1 nM; that for `CC(C)C(=O)NS1(=O)=NC(=O)C(C)(C)OC/C=C/[C@H](OCCN2CCCC2)[C@@H]2CC[C@H]2CN2C[C@@]3(CCCc4cc(Cl)ccc43)COc3ccc1cc32` (stereo partly drawn) [Example 54, N-[(3R,6R,7S,8E,22S)-7′-Chloro-12,12-dimethyl-13,15-dioxo-7-(2-pyrrolidin-1-ylethoxy)spiro[11,20-dioxa-15-thia-1,14-diazatetracyclo[14.7.2.03,6.019,24]pentacosa-8,14,16,18,24-pentaene-22,4′-2,3-dihydro-1H-naphthalene]-15-yl]-2-methylpropanamide], less than 1 nM. For the molecule `CO[C@H]1/C=C/COC(C)(C)C(=O)N=S(=O)(NC(=O)c2cnn(C)c2C)c2ccc3c(c2)N(C[C@@H]2CC[C@H]21)C[C@@]1(CCCc2cc(Cl)ccc21)CO3` (stereo partly drawn) [Example 18, N-[(3R,6R,7S,8E,22S)-7′-Chloro-7-methoxy-12,12-dimethyl-13,15-dioxospiro[11,20-dioxa-15-thia-1,14-diazatetracyclo[14.7.2.03,6.019,24]pentacosa-8,14,16,18,24-pentaene-22,4′-2,3-dihydro-1H-naphthalene]-15-yl]-1,5-dimethylpyrazole-4-carboxamide], the Ki at MCL-1 was less than 1 nM.

On to `COC1C=CCOC(C)(C)C(=O)N=S(=O)(NC(=O)N2CC(O)C2)c2ccc3c(c2)N(CC2CCC21)CC1(CCCc2cc(Cl)ccc21)CO3` (stereo not shown) [29 or 30], for which the IC50 in the assay with H929 cells (24 hours) is less than 100 nM. The Ki on MCL-1 is less than 1 nM.

Regarding `COC1CN(C(=O)NS2(=O)=NC(=O)C(C)(C)OCC=CC(OC)C3CCC3CN3CC4(CCCc5cc(Cl)ccc54)COc4ccc2cc43)C1` (stereo not shown) [31 or 32], the IC50 with H929 cells (Homo sapiens, NCI-H929, 24 h) is less than 100 nM. On MCL-1, the Ki was less than 1 nM. Regarding `CO[C@H]1/C=C/COC(C)(C)C(=O)N=S(=O)(NC(=O)c2ccccc2)c2ccc3c(c2)N(C[C@@H]2CC[C@H]21)C[C@@]1(CCCc2cc(Cl)ccc21)CO3` (stereo partly drawn) [Example 12, N-[(3R,6R,7S,8E,22S)-7′-Chloro-7-methoxy-12,12-dimethyl-13,15-dioxospiro[11,20-dioxa-15-thia-1,14-diazatetracyclo[14.7.2.03,6.019,24]pentacosa-8,14,16,18,24-pentaene-22,4′-2,3-dihydro-1H-naphthalene]-15-yl]benzamide], the half-maximal inhibitory concentration (IC50) in the assay with H929 cells (Homo sapiens, NCI-H929, 24 h) lay within 100 to 500 nM. Further, the Ki at MCL-1 was less than 1 nM. Consider `COC1C=CCOC(C)(C)C(=O)N=S(=O)(NC(=O)N2CC(O)C2)c2ccc3c(c2)N(CC2CCC21)CC1(CCCc2cc(Cl)ccc21)CO3` (stereo not shown) [30 or 29], for which, in the assay on H929 cells (24 hours), the IC50 was more than 500 nM. Besides, at MCL-1, the Ki is more than 1 nM. As to `CC(C)C(=O)NS1(=O)=NC(=O)C(C)(C)OC/C=C/[C@H](OCCN(C)C)[C@@H]2CC[C@H]2CN2C[C@@]3(CCCc4cc(Cl)ccc43)COc3ccc1cc32` (stereo partly drawn) [Example 55, N-[(3R,6R,7S,8E,22S)-7′-Chloro-7-[2-(dimethylamino)ethoxy]-12,12-dimethyl-13,15-dioxospiro[11,20-dioxa-15-thia-1,14-diazatetracyclo[14.7.2.03,6.019,24]pentacosa-8,14,16,18,24-pentaene-22,4′-2,3-dihydro-1H-naphthalene]-15-yl]-2-methylpropanamide], the Ki at MCL-1 is more than 1 nM. Same read-out and setting: the same measure for `CN(C)C(=O)O[C@H]1/C=C/COC(C)(C)C(=O)N=S(=O)(NC(=O)c2cnn(C)c2)c2ccc3c(c2)N(C[C@@H]2CC[C@H]21)C[C@@]1(CCCc2cc(Cl)ccc21)CO3` (stereo partly drawn) [Example 53, [(3R,6R,7S,8E,22S)-7′-Chloro-12,12-dimethyl-15-[(1-methylpyrazole-4-carbonyl)amino]-13,15-dioxospiro[11,20-dioxa-15-thia-1,14-diazatetracyclo[14.7.2.03,6.019,24]pentacosa-8,14,16,18,24-pentaene-22,4′-2,3-dihydro-1H-naphthalene]-7-yl] N,N-dimethylcarbamate]: less than 1 nM.
